According to ChEMBL document CHEMBL5241090, “A comprehensive overview of β-carbolines and its derivatives as anticancer agents” (Eur J Med Chem, 2021):
Values after ≈ are worked out from the molar mass of the structure shown.

Columns and labels:
[1] = test system: 1A9; experiment: Cytotoxicity against human 1A9 cells by SRB assay; format: functional, cell-based
[2] = test system: KB; experiment: Cytotoxicity against human KB cells by SRB assay; format: functional, cell-based
[3] = test system: SAOS-2; experiment: Cytotoxicity against human SAOS-2 cells by SRB assay; format: functional, cell-based
[4] = test system: A549; experiment: Cytotoxicity against human A549 cells by SRB assay; format: functional, cell-based
[5] = test system: SK-MEL-2; experiment: Cytotoxicity against human SK-MEL-2 cells by SRB assay; format: functional, cell-based
[6] = Cytotoxicity against human U-87 MG cells by SRB assay; format: functional, cell-based, U-87MG ATCC
[7] = test system: MCF7; experiment: Cytotoxicity against human MCF7 cells by SRB assay; format: functional, cell-based
[8] = test system: KB; experiment: Cytotoxicity against human KB cells; format: functional, cell-based
[9] = test system: LoVo; experiment: Cytotoxicity against human LoVo cells; format: functional, cell-based
[10] = test system: LoVo; experiment: Cytotoxicity against human LoVo cells by MTT assay; format: functional
[11] = test system: B16; experiment: Cytotoxicity against mouse B16 cells by MTT assay; format: functional, cell-based
[12] = test system: HT-29; experiment: Cytotoxicity against human HT-29 cells by MTT assay; format: functional, cell-based
[13] = test system: HeLa; experiment: Cytotoxicity against human HeLa cells by MTT assay; format: functional, cell-based
[14] = test system: PC-3; experiment: Cytotoxicity against human PC-3 cells by MTT assay; format: functional, cell-based
[15] = test system: HL-60(TB); experiment: Antiproliferative activity against human HL-60(TB) cells; format: functional, cell-based
[16] = test system: K562; experiment: Cytotoxicity against human K562 cells; format: functional, cell-based
[17] = test system: Breast carcinoma cell; experiment: Cytotoxicity against human Breast cancer cell line measured after 72 hrs by MTT assay; format: functional, cell-based
[18] = Cytotoxicity against human Pancreatic cancer cell measured after 72 hrs by MTT assay; format: functional, cell-based
[19] = test system: NCI-H460; experiment: Antiproliferative activity against human NCI-H460 cells assessed as cell viability incubated for 24 hrs by MTT assay; format: functional, cell-based; details: NCI-H460, 24 h
[20] = test system: NCI-H460; experiment: Antiproliferative activity against human NCI-H460 cells assessed as cell viability incubated for 48 hrs by MTT assay; format: functional, cell-based; details: NCI-H460, 48 h
[21] = test system: T47D; experiment: Antiproliferative activity against human T47D cells assessed as cell viability incubated for 24 hrs by MTT assay; format: functional, cell-based
[22] = test system: T47D; experiment: Antiproliferative activity against human T47D cells assessed as cell viability incubated for 48 hrs by MTT assay; format: functional, cell-based
[23] = test system: HCT-116; experiment: Antiproliferative activity against human HCT-116 cells assessed as cell viability incubated for 24 hrs by MTT assay; format: functional, cell-based; details: HCT-116, 24 h
[24] = test system: HeLa; experiment: Cytotoxicity against human HeLa cells measured after 48 hrs by MTT assay; format: functional, cell-based
[25] = test system: HT-29; experiment: Cytotoxicity against human HT-29 cells measured after 48 hrs by MTT assay; format: functional, cell-based; details: HT-29, 48 h
[26] = test system: HGC-27; experiment: Cytotoxicity against human HGC-27 cells measured after 48 hrs by MTT assay; format: functional, cell-based; details: HGC-27, 48 h
[27] = test system: MCF7; experiment: Cytotoxicity against human MCF7 cells measured after 48 hrs by MTT assay; format: functional, cell-based; details: MCF7, 48 h
[28] = test system: PC-3; experiment: Cytotoxicity against human PC-3 cells measured after 48 hrs by MTT assay; format: functional, cell-based; details: PC-3, 48 h
[29] = test system: HeLa; experiment: Cytotoxicity against human HeLa cells assessed as cell viability incubated for 1 hr by spectrophotometry; format: functional, cell-based
[30] = test system: HepG2; experiment: Cytotoxicity against human HepG2 cells assessed as cell viability incubated for 1 hr by spectrophotometry; format: functional, cell-based; details: HepG2, 1 h
[31] = test system: Bel-7402; experiment: Cytotoxicity against human Bel-7402 cells assessed as cell viability incubated for 1 hr by spectrophotometry; format: functional, cell-based; details: Bel-7402, 1 h
[32] = test system: BGC-823; experiment: Cytotoxicity against human BGC-823 cells assessed as cell viability incubated for 1 hr by spectrophotometry; format: functional, cell-based; details: BGC-823, 1 h
[33] = test system: KB; experiment: Cytotoxicity against human KB cells assessed as cell viability incubated for 1 hr by spectrophotometry; format: functional, cell-based
[34] = test system: LoVo; experiment: Cytotoxicity against human LoVo cells assessed as cell viability incubated for 1 hr by spectrophotometry; format: functional, cell-based
[35] = test system: A549; experiment: Cytotoxicity against human A549 cells assessed as cell viability incubated for 1 hr by spectrophotometry; format: functional, cell-based; details: A549, 1 h
[36] = test system: A-375; experiment: Cytotoxicity against human A-375 cells assessed as cell viability incubated for 1 hr by spectrophotometry; format: functional, cell-based; details: A-375, 1 h
[37] = test system: 786-0; experiment: Cytotoxicity against human 786-0 cells assessed as cell viability incubated for 1 hr by spectrophotometry; format: functional, cell-based; details: 786-0, 1 h
[38] = test system: HT-29; experiment: Cytotoxicity against human HT-29 cells assessed as cell viability incubated for 1 hr by spectrophotometry; format: functional, cell-based; details: HT-29, 1 h
[39] = test system: 769-P; experiment: Cytotoxicity against human 769-P cells assessed as cell viability incubated for 1 hr by spectrophotometry; format: functional, cell-based
[40] = test system: HL-60; experiment: Cytotoxicity against human HL-60 cells; format: functional, cell-based; details: hl-60
[41] = Cytotoxicity against human BGC cells; format: functional, cell-based
[42] = test system: OVCAR-3; experiment: Cytotoxicity against human OVCAR-3 cells by MTT assay; format: functional, cell-based
[43] = test system: SW480; experiment: Cytotoxicity against human SW480 cells by MTT assay; format: functional, cell-based
[44] = test system: SMMC-7721; experiment: Cytotoxicity against human SMMC-7721 cells measured after 48 hrs by MTT assay; format: functional, cell-based; details: SMMC-7721, 48 h
[45] = test system: HepG2; experiment: Cytotoxicity against human HepG2 cells measured after 48 hrs by MTT assay; format: functional, cell-based; details: HepG2, 48 h
[46] = test system: EJ; experiment: Cytotoxicity against human EJ cells measured after 48 hrs by MTT assay; format: functional, cell-based
[47] = test system: HCT-116; experiment: Cytotoxicity against human HCT-116 cells measured after 48 hrs by MTT assay; format: functional, cell-based; details: HCT-116, 48 h
[48] = test system: NCI-H460; experiment: Cytotoxicity against human NCI-H460 cells measured after 48 hrs by MTT assay; format: functional, cell-based; details: NCI-H460, 48 h

## COc1ccc2c(c1)[nH]c1c(/C=C/c3ccc([N+](=O)[O-])cc3)nccc12
[1]
  IC50: 0.3 µg/mL (≈ 0.869 µM)
[2]
  IC50: 0.3 µg/mL (≈ 0.869 µM)
[3]
  IC50: 0.3 µg/mL (≈ 0.869 µM)
[4]
  IC50: 0.3 µg/mL (≈ 0.869 µM)
[5]
  IC50: 0.3 µg/mL (≈ 0.869 µM)
[6]
  IC50: 0.3 µg/mL (≈ 0.869 µM)
[7]
  IC50: 0.3 µg/mL (≈ 0.869 µM)

## Oc1cccc2c1[nH]c1c(C3=C[C@@]4(O)CC/C=C\CCCCN5CC[C@@H]3[C@]3(C[C@@H]6/C=C\CCCCN6[C@H]34)C5)nccc12
[8]; Homo sapiens, KB, read-out: IC50
  IC50: 0.3 µg/mL
[9]
  IC50: 0.26 µg/mL (≈ 0.46 µM)

## CCCCn1c2ccccc2c2cc(C(=O)O)ncc21
[10]
  IC5: 11 µM

## COc1cc(C(=O)/C=C/c2cc3c([nH]c4ccccc43)c(-c3cc(OC)c(OC)c(OC)c3)n2)cc(OC)c1OC
[11]
  IC50: 5.3 µM
[12]
  IC50: 5.3 µM
[13]
  IC50: 5.3 µM
[14]
  IC50: 5.3 µM

## COc1ccc2[nH]cc(-c3nccc4c3[nH]c3ccc(OC)cc34)c2c1
[15]
  IC50: 4.2 µM

## CC[C@H](C)[C@H](NC(=O)[C@H](Cc1c[nH]c2ccccc12)NC(=O)[C@H](Cc1c[nH]c2ccccc12)NC(=O)c1cc2c([nH]c3ccccc32)c(-c2ccc(O)c(OC)c2)n1)C(=O)OCc1ccccc1
[16]
  IC50: 12 µM

## COc1ccc2[nH]c3c(-c4cccc5ccccc45)nccc3c2c1
[17]
  IC50: 0.39 µM
[18]
  IC50: 0.38 µM

## Cc1nccc2c3ccccc3n(CCCCn3c4ccccc4c4ccnc(C)c43)c12
[19]
  IC50: 10.9 µM
[20]
  IC50: 9.58 µM
[21]
  IC50: 9.88 µM
[22]
  IC50: 8.22 µM
[23]
  IC50: 5.09 µM

## COc1cc(-c2nc(Cn3cc(CN4C(=O)c5ccccc5C4=O)nn3)cc3c2[nH]c2ccccc23)cc(OC)c1OC
[24]
  IC50: 3.67 µM
[25]
  IC50: 3.67 µM
[26]
  IC50: 3.67 µM
[27]
  IC50: 3.67 µM
[28]
  IC50: 3.67 µM

## COc1ccc(/C=C/c2c3c(cc[n+]2Cc2ccccc2)c2ccccc2n3CCCc2ccccc2)cc1
[29]
  IC50: < 5 µM
[30]
  IC50: < 5 µM
[31]
  IC50: < 5 µM
[32]
  IC50: < 5 µM
[33]
  IC50: < 5 µM
[34]
  IC50: < 5 µM
[35]
  IC50: < 5 µM
[36]
  IC50: < 5 µM
[37]
  IC50: < 5 µM
[38]
  IC50: < 5 µM
[39]
  IC50: < 5 µM

## NCCCCNC(=O)c1cc2c(cn1)[nH]c1ccccc12
[8]; kb
  IC50: 8.6 µM
[40]
  IC50: 8.6 µM
[41]
  IC50: 8.6 µM

## CC(C)OC(=O)c1cc2c([nH]c3ccccc32)c(-c2cccc3ccccc23)n1
[42]
  IC50: 7.5 µM
[43]
  IC50: 2.7 µM
[14]
  IC50: 7.1 µM

## Cc1nc(C(=O)NCCCCNC(=O)c2ccccc2O)cc2c1[nH]c1ccccc12
[44]
  IC50: 6.97 µM
[45]
  IC50: 6.97 µM
[46]
  IC50: 6.97 µM
[47]
  IC50: 6.97 µM
[48]
  IC50: 6.97 µM
